According to the supplement of paper PMC5662764:
± gives the standard deviation of the averaged measurements.

Columns and labels:
Assay in all cases: normalised growth rate inhibition (GR value) relative to DMSO control (GR (1 = untreated growth, 0 = cytostasis, <0 = cytotoxic)); higher = less growth inhibition
Details in all cases: 72 h
[1] = tested on: BT20
Procedure: (§1)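 Breast cancer cell lines (BT-20, Hs 578T, MCF 10A, MCF7, MDA-MB-231, SK-BR-3) were plated in 384-well plates and treated 24 h later with drugs at six concentrations (0.04-10 µM). Viable cells were counted by Hoechst/dead-cell-stain imaging at 0 and 72 h. Counts were normalised to DMSO controls on the same plate to give the relative cell count and the growth-rate inhibition (GR) value; technical plate triplicates were averaged for each biological replicate.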

[2] = tested on: HS578T
Procedure: as §1

[3] = tested on: MCF10A
Procedure: as §1

[4] = tested on: MCF7
Procedure: as §1

[5] = tested on: MDAMB231
Procedure: as §1

[6] = tested on: SKBR3
Procedure: as §1

Structure (SMILES)	normalised growth rate inhibition ([1]; 0.04 µM)	normalised growth rate inhibition ([1]; 0.12 µM)	normalised growth rate inhibition ([1]; 0.37 µM)	normalised growth rate inhibition ([1]; 1.11 µM)	normalised growth rate inhibition ([1]; 3.33 µM)	normalised growth rate inhibition ([1]; 10 µM)	normalised growth rate inhibition ([2]; 0.04 µM)	normalised growth rate inhibition ([2]; 0.12 µM)	normalised growth rate inhibition ([2]; 0.37 µM)	normalised growth rate inhibition ([2]; 1.11 µM)	normalised growth rate inhibition ([2]; 3.33 µM)	normalised growth rate inhibition ([2]; 10 µM)	normalised growth rate inhibition ([3]; 0.04 µM)	normalised growth rate inhibition ([3]; 0.12 µM)	normalised growth rate inhibition ([3]; 0.37 µM)	normalised growth rate inhibition ([3]; 1.11 µM)	normalised growth rate inhibition ([3]; 3.33 µM)	normalised growth rate inhibition ([3]; 10 µM)	normalised growth rate inhibition ([4]; 0.04 µM)	normalised growth rate inhibition ([4]; 0.12 µM)	normalised growth rate inhibition ([4]; 0.37 µM)	normalised growth rate inhibition ([4]; 1.11 µM)	normalised growth rate inhibition ([4]; 3.33 µM)	normalised growth rate inhibition ([4]; 10 µM)	normalised growth rate inhibition ([5]; 0.04 µM)	normalised growth rate inhibition ([5]; 0.12 µM)	normalised growth rate inhibition ([5]; 0.37 µM)	normalised growth rate inhibition ([5]; 1.11 µM)	normalised growth rate inhibition ([5]; 3.33 µM)	normalised growth rate inhibition ([5]; 10 µM)	normalised growth rate inhibition ([6]; 0.04 µM)	normalised growth rate inhibition ([6]; 0.12 µM)	normalised growth rate inhibition ([6]; 0.37 µM)	normalised growth rate inhibition ([6]; 1.11 µM)	normalised growth rate inhibition ([6]; 3.33 µM)	normalised growth rate inhibition ([6]; 10 µM)
C=CC(=O)Nc1cc2c(Nc3ccc(F)c(Cl)c3)ncnc2cc1OCCCN1CCOCC1 [canertinib]	0.896 ± 0.044	0.8804 ± 0.0073	0.831 ± 0.027	0.814 ± 0.045	0.71 ± 0.061	-0.13 ± 0.097	1 ± 0.028	0.996 ± 0.028	0.969 ± 0.019	0.944 ± 0.011	0.851 ± 0.034	-0.289 ± 0.13	0.702 ± 0.24	0.498 ± 0.26	0.313 ± 0.2	0.173 ± 0.1	0.105 ± 0.033	-0.39 ± 0.22	0.9894 ± 0.0058	0.884 ± 0.035	0.801 ± 0.053	0.67 ± 0.062	0.505 ± 0.13	-0.367 ± 0.092	1.04 ± 0.029	0.965 ± 0.015	0.909 ± 0.026	0.782 ± 0.034	0.572 ± 0.099	-0.249 ± 0.077	0.148 ± 0.089	0.023 ± 0.12	-0.0304 ± 0.15	-0.0844 ± 0.15	-0.124 ± 0.14	-0.261 ± 0.12
C[C@@H](Oc1cc(-c2cnn(C3CCNCC3)c2)cnc1N)c1c(Cl)ccc(F)c1Cl [crizotinib]	0.805 ± 0.04	0.91 ± 0.024	0.823 ± 0.015	0.742 ± 0.03	0.391 ± 0.17	-0.0468 ± 0.072	0.976 ± 0.034	0.965 ± 0.042	0.903 ± 0.014	0.781 ± 0.12	0.367 ± 0.2	0.0436 ± 0.099	0.988 ± 0.021	0.964 ± 0.032	0.934 ± 0.022	0.906 ± 0.015	0.833 ± 0.028	0.094 ± 0.017	0.762 ± 0.07	0.748 ± 0.078	0.618 ± 0.12	0.351 ± 0.17	0.0468 ± 0.047	-0.174 ± 0.065	0.831 ± 0.13	0.885 ± 0.079	0.778 ± 0.096	0.509 ± 0.2	0.175 ± 0.12	-0.0131 ± 0.13	0.687 ± 0.14	0.808 ± 0.096	0.753 ± 0.15	0.629 ± 0.15	0.342 ± 0.14	-0.181 ± 0.092
Cc1nc(Nc2ncc(C(=O)Nc3c(C)cccc3Cl)s2)cc(N2CCN(CCO)CC2)n1 [dasatinib]	0.622 ± 0.27	0.364 ± 0.2	0.0964 ± 0.081	0.0125 ± 0.077	-0.085 ± 0.094	-0.163 ± 0.1	0.394 ± 0.28	0.17 ± 0.22	0.0194 ± 0.17	-0.0213 ± 0.16	-0.0565 ± 0.17	-0.109 ± 0.15	0.621 ± 0.24	0.391 ± 0.23	0.196 ± 0.14	0.0869 ± 0.091	-0.0296 ± 0.08	-0.138 ± 0.061	0.342 ± 0.32	0.0795 ± 0.2	-0.0261 ± 0.17	-0.0357 ± 0.15	-0.0394 ± 0.16	-0.0825 ± 0.16	0.159 ± 0.29	-0.107 ± 0.1	-0.204 ± 0.032	-0.233 ± 0.054	-0.239 ± 0.061	-0.259 ± 0.12	0.998 ± 0.06	0.937 ± 0.08	0.942 ± 0.058	0.766 ± 0.064	0.398 ± 0.15	-0.166 ± 0.22
CN1CCN(c2ccc3nc(-c4c(N)c5c(F)cccc5[nH]c4=O)[nH]c3c2)CC1 [dovitinib]	0.83 ± 0.047	0.685 ± 0.11	0.394 ± 0.13	0.304 ± 0.072	0.219 ± 0.034	0.156 ± 0.12	0.791 ± 0.047	0.562 ± 0.035	0.3 ± 0.083	0.271 ± 0.097	0.283 ± 0.079	0.254 ± 0.16	0.962 ± 0.032	0.893 ± 0.046	0.599 ± 0.098	0.368 ± 0.18	0.146 ± 0.085	0.0253 ± 0.033	0.898 ± 0.047	0.862 ± 0.079	0.678 ± 0.14	0.554 ± 0.19	0.379 ± 0.17	0.304 ± 0.1	0.903 ± 0.11	0.817 ± 0.14	0.534 ± 0.1	0.451 ± 0.12	0.343 ± 0.068	0.23 ± 0.099	0.711 ± 0.12	0.659 ± 0.066	0.497 ± 0.062	0.474 ± 0.081	0.275 ± 0.04	0.142 ± 0.045
Cn1cc(C2=C(c3cn(C4CCN(Cc5ccccn5)CC4)c4ccccc34)C(=O)NC2=O)c2ccccc21 [enzastaurin]	1.01 ± 0.1	1.03 ± 0.057	1.07 ± 0.043	1.07 ± 0.079	1.13 ± 0.057	1.19 ± 0.062	1.02 ± 0.027	0.998 ± 0.018	1 ± 0.028	1.02 ± 0.027	1.01 ± 0.019	0.935 ± 0.035	1.006 ± 0.0093	1 ± 0.014	1 ± 0.018	1.02 ± 0.03	1.01 ± 0.061	0.985 ± 0.11	0.978 ± 0.052	0.999 ± 0.035	1.01 ± 0.035	0.946 ± 0.039	0.936 ± 0.084	0.693 ± 0.31	1 ± 0.023	1.01 ± 0.035	1 ± 0.048	1 ± 0.071	1.01 ± 0.036	1.03 ± 0.079	1.1 ± 0.097	1.07 ± 0.085	1.1 ± 0.033	1.06 ± 0.033	1.07 ± 0.056	0.958 ± 0.18
C#Cc1cccc(Nc2ncnc3cc(OCCOC)c(OCCOC)cc23)c1 [erlotinib]	0.861 ± 0.025	0.879 ± 0.049	0.902 ± 0.068	0.834 ± 0.032	0.856 ± 0.049	0.547 ± 0.057	0.973 ± 0.015	0.965 ± 0.023	0.957 ± 0.012	0.945 ± 0.019	0.918 ± 0.016	0.586 ± 0.073	0.973 ± 0.013	0.829 ± 0.14	0.432 ± 0.17	0.107 ± 0.053	0.132 ± 0.065	0.136 ± 0.036	0.858 ± 0.069	0.899 ± 0.074	1.02 ± 0.024	1.06 ± 0.047	1.04 ± 0.04	0.927 ± 0.074	0.9 ± 0.058	0.937 ± 0.032	0.953 ± 0.035	0.962 ± 0.036	0.969 ± 0.016	0.641 ± 0.069	0.756 ± 0.077	0.885 ± 0.06	0.946 ± 0.085	0.911 ± 0.072	0.868 ± 0.08	0.165 ± 0.12
COc1cc2c(Oc3ccc(NC(=O)C4(C(=O)Nc5ccc(F)cc5)CC4)cc3F)ccnc2cc1OCCCN1CCOCC1 [foretinib]	1.02 ± 0.046	0.799 ± 0.15	0.236 ± 0.22	-0.00958 ± 0.12	-0.0192 ± 0.12	-0.124 ± 0.12	0.936 ± 0.045	0.845 ± 0.011	0.381 ± 0.15	0.256 ± 0.14	0.178 ± 0.14	-0.223 ± 0.12	1.03 ± 0.031	0.992 ± 0.028	0.902 ± 0.034	0.429 ± 0.1	0.154 ± 0.043	-0.0329 ± 0.028	1.01 ± 0.025	0.495 ± 0.2	0.134 ± 0.019	0.0492 ± 0.039	0.00497 ± 0.016	-0.225 ± 0.025	0.91 ± 0.037	0.615 ± 0.012	0.168 ± 0.12	0.113 ± 0.12	0.0741 ± 0.17	-0.211 ± 0.056	1.07 ± 0.037	0.812 ± 0.26	0.0769 ± 0.069	-0.0562 ± 0.079	-0.034 ± 0.083	-0.0967 ± 0.11
COc1cc2ncnc(Nc3ccc(F)c(Cl)c3)c2cc1OCCCN1CCOCC1 [gefitinib]	1.04 ± 0.075	0.968 ± 0.11	0.94 ± 0.051	0.909 ± 0.075	0.878 ± 0.05	0.762 ± 0.11	0.999 ± 0.0098	0.9844 ± 0.0036	0.984 ± 0.015	0.986 ± 0.014	0.987 ± 0.0035	0.849 ± 0.015	0.887 ± 0.052	0.59 ± 0.11	0.265 ± 0.088	0.122 ± 0.01	0.121 ± 0.024	0.105 ± 0.022	1.09 ± 0.064	1.06 ± 0.069	1.05 ± 0.083	1.04 ± 0.092	1.03 ± 0.069	0.808 ± 0.04	1.07 ± 0.063	1.03 ± 0.068	1.019 ± 0.0099	1.02 ± 0.038	1.01 ± 0.069	0.897 ± 0.021	0.909 ± 0.055	0.74 ± 0.063	0.567 ± 0.076	0.418 ± 0.099	0.342 ± 0.12	0.048 ± 0.14
